Experimental data taken from US20220155314A1, “TROPHOBLAST STEM CELL, METHODS OF PREPARATION AND USES THEREOF” (Academia Sinica, priority 2020, published 2022).
Each block holds one compound with its values, some of them ahead of it.

Assays:
Assay type in all cases: cell-based, human
[1] = system: ST-TS^Term#2 cells; experiment: STB differentiation from TS^Term#2 cells with cyclocreatine; conditions: TS^Term#2 cells induced into STBs for 72 h with cyclocreatine (FIG. 11H)
Excerpt: FIGS. 11A to 11I show the regulation of STB differentiation by the GCM1-CKMT1 axis. […] TS^Term#1, TS^Term#2, and TS#1^GCM1-KO cells and their derivative STBs were subjected to RNA-seq analysis. […] TS^Term#1, TS^Term#2, and TS^Term#3 cells and their derivative STBs were subjected to immunoblotting and quantitative RT-PCR analyses of GCM1, hCGβ or CKMT1 proteins and transcripts. […] Scramble control and CKMT1-knockdown TS^Term#2 cells and their derivative STBs were stained with MitoTracker and CKMT1 Ab for immunofluorescence microscopy. Scale bars in FIGS. 11D and 11E, 100 μm. […] Scramble control and CKMT1-knockdown TS^Term#2 cells and their derivative STBs were subjected to immunoblotting and quantitative RT-PCR analyses of GCM1, hCGβ, LHB or CKMT1 proteins or transcripts. In a separated experiment, cells were stained with E-cadherin Ab for cell fusion analysis. Syncytial margins are marked with a stippled line. Cell fusion efficiency was measured by fusion index or the distribution of syncytia containing varying numbers of nuclei. Scale bar, 100 μm. […] Mock (ST)- or cyclocreatine-treated TS^Term#2 cells (ST+Cyclo-Cr) were induced into STBs for 72 h, followed by immunoblotting analysis of hCGβ protein. […]

[2] = system: JEG3 cells; experiment: Immunoblotting and quantitative RT-PCR of trophoblast differentiation and stemness genes in JEG3 cells; conditions: 50 μM FSK or 1 mM DB-cAMP
Excerpt: FIGS. 2A to 2I show the physical and functional interaction between ΔNp63α and GCM1. […] First-trimester and term placental sections were stained with ΔNp63α and GCM1 antibodies (Abs) for immunofluorescence microscopy. Boxed areas are shown at higher magnification and presented below. Arrowhead, asterisk, and arrow indicate trophoblasts expressing ΔNp63α, GCM1, and both, respectively. Nuclei were stained with DAPI. Term placental sections were stained with CK7 Ab for trophoblasts and normal mouse IgG (M-IgG) and rabbit IgG (R-IgG) for negative controls. […] Mock and ΔNp63α-FLAG-expressing BeWo cells were subjected to immunoblotting (left) and quantitative RT-PCR (right) analyses of GCM1, HTRA4, and hCGβ proteins and transcripts. […] BeWo cells stably expressing scramble or GCM1 shRNA were subjected to immunoblotting (left) and quantitative RT-PCR (right) analyses of GCM1 and ΔNp63α proteins and transcripts. […] JEG3 cells were mock treated (DMSO or control buffer (CTRL)) or treated with 50 μM FSK or 1 mM DB-cAMP for 24 h, followed by immunoblotting and quantitative RT-PCR analyses of the indicated trophoblast differentiation and stemness proteins or transcripts. […]
FIGS. 3A to 3I show reciprocal regulation of GCM1 and ΔNp63α activities in trophoblast differentiation. […] Cell fusion was quantified by fusion index. […]

[3] = system: BeWo cells; experiment: Expression of trophoblast stemness and differentiation genes in BeWo cells treated with EGF and chemical inhibitors
Experimental: FIGS. 6A to 6I show the regulation of trophoblast stemness and differentiation by antagonism between ΔNp63α and GCM1. […] ITGA6-positive term CTBs were cultured in complete TS medium for 5 days and then maintained in the same medium or incomplete medium (vehicle alone without EGF and chemical inhibitors) for an additional 7 days. Cells were subjected to immunofluorescence microscopy of ΔNp63α, GCM1, and hCGβ. […] BeWo cells were incubated in complete or incomplete TS medium supplemented with the indicated growth factor or chemical inhibitor(s) for 24 h. Cells were harvested for quantitative RT-PCR analysis of the indicated stemness or differentiation genes. […] BeWo cells were treated with the indicated concentration of VPA for 24 hours and then harvested for immunoblotting and quantitative RT-PCR analyses of GCM1, ΔNp63α, and hCGβ. […] BeWo cells were transfected with 4XCSL-luciferase in the presence or absence of 2 mM VPA for 48 hours, followed by luciferase assays. […] 293T cells were transfected with pHA-GCM1 and pNotch1IC-FLAG for 48 hours, followed by coimmunoprecipitation analysis and confocal microscopy using FLAG and HA mAbs and GCM1 Ab. […] EGFP-positive mock or Notch1IC-FLAG-expressing BeWo cells were treated with or without 50 μM FSK for 24 h, followed by immunoblotting and quantitative RT-PCR analyses of GCM1, hCGβ or HTRA4. […] BeWo cells were treated with or without 1 mM VPA in the presence or absence of 20 μM MG132 for 8 h and then subjected to immunoblotting analysis of GCM1 and Notch1IC. […] The EGFP-positive mock or Notch1IC-FLAG-expressing BeWo cells were transfected with the GCM1 promoter reporter plasmid E1bLUCGCM1-2K for 48 h and then subjected to luciferase assays. […] BeWo cells and ITGA6-positive term CTBs were cultured under normoxic or hypoxic conditions for 72 h and 7 days, respectively. Cells were then harvested for quantitative RT-PCR analysis of GCM1, ΔNp63α, HTRA4, hCGβ, and MKI67. Means and standard deviations obtained from three independent experiments are presented.
To study the effect of EGF and chemical inhibitors on trophoblast differentiation, BeWo cells were cultured in the complete TS medium or in the incomplete TS medium with EGF alone or the indicated chemical inhibitor(s) for 24 h. Cells were then harvested for quantitative RT-PCR or immunoblotting analysis of expression of ΔNp63α, eomesodermin (EOMES), E74-like factor 5 (ELF5) or GCM1 and its target genes.

[4] = system: Notch signaling; experiment: Notch reporter (4xCSL-luciferase) assay; conditions: BeWo cells; 2 mM VPA, 48 hours (FIG. 6D)
Experimental: FIGS. 6A to 6I show the regulation of trophoblast stemness and differentiation by antagonism between ΔNp63α and GCM1. […] ITGA6-positive term CTBs were cultured in complete TS medium for 5 days and then maintained in the same medium or incomplete medium (vehicle alone without EGF and chemical inhibitors) for an additional 7 days. Cells were subjected to immunofluorescence microscopy of ΔNp63α, GCM1, and hCGβ. […] BeWo cells were incubated in complete or incomplete TS medium supplemented with the indicated growth factor or chemical inhibitor(s) for 24 h. Cells were harvested for quantitative RT-PCR analysis of the indicated stemness or differentiation genes. […] BeWo cells were treated with the indicated concentration of VPA for 24 hours and then harvested for immunoblotting and quantitative RT-PCR analyses of GCM1, ΔNp63α, and hCGβ. […] BeWo cells were transfected with 4XCSL-luciferase in the presence or absence of 2 mM VPA for 48 hours, followed by luciferase assays. […] EGFP-positive mock or Notch1IC-FLAG-expressing BeWo cells were treated with or without 50 μM FSK for 24 h, followed by immunoblotting and quantitative RT-PCR analyses of GCM1, hCGβ or HTRA4. […] Cells were then harvested for quantitative RT-PCR analysis of GCM1, ΔNp63α, HTRA4, hCGβ, and MKI67. […]

[5] = EGF alone in incomplete TS medium, 24 h (FIG. 6B)
[6] = VPA 24 hours, dose-dependent (FIG. 6C)
[7] = single agent in incomplete TS medium, 24 h (FIG. 6B)

Compound: NC1=NCCN1CC(=O)O [cyclocreatine]
hCGβ, SYN1, and LHB expression [1]: suppressed

Compound: CCCC(=O)Nc1ncnc2c1ncn2[C@@H]1O[C@@H]2COP(=O)(O)O[C@H]2[C@H]1OC(=O)CCC [DB-cAMP, dibutyryl-cAMP]
expression of ΔNp63α and trophoblast stemness genes ELF5, EOMES, and TEAD4 ([2]; 24 h (FIG. 2I)): decreased expression | expression of GCM1 and its target genes syncytin-1 (SYN1), hCGβ, HTRA4, PGF, and WNT10B ([2]; 24 h, immunoblotting and qRT-PCR (FIG. 2I)): increased expression

Compound: epidermal growth factor (NSDSECPLSHDGYCLHDGVCMYIEALDKYACNCVVGYIGERCQYRDLKWWELR; not fully specified; Epidermal growth factor; UniProt P01133 971-1023, looked up) [EGF, growth factor in complete TS medium]
GCM1 and WNT10B expression [3, 5]: suppressed | hCGβ expression [3, 5]: enhanced

Notch reporter plasmid p4×CSL-luciferase activity [4]: transactivated
Compound: CCCC(CCC)C(=O)O [VPA, valproic acid]
GCM1 and hCGβ expression [3, 6]: suppress | ΔNp63α expression [3, 6]: increase

Compound: Cc1c[nH]c(-c2cnc(NCCNc3ccc(C#N)cn3)nc2-c2ccc(Cl)cc2Cl)n1 [CHIR99021]
expression of ELF5, TEAD4, and AXIN2 [3, 7]: upregulation | expression of WNT10B [3, 7]: downregulation
